The values below come from ChEMBL document CHEMBL1124789, “Angiotensin-converting enzyme inhibitors. 9. Novel [[N-(1-carboxy-3-phenylpropyl)amino]acyl]glycine derivatives with diuretic activity” (J Med Chem, 1990).

The test system of test [1] is Canis familiaris. Put plainly: Diuretic activity (ip) was tested in dogs; NI-No Increase. It is filed as functional, organism-based. The following applies: Canis lupus familiaris; Urine.
Test [2] relates to Canis familiaris. Nature of the test: Maximum percent decrease in blood pressure at the dose of 1.0 mg/kg ip. In kind it is functional, Canis lupus familiaris. The settings on record: route intraperitoneal.
Test [3] deals with Rattus norvegicus. Nature of the test: Diuretic activity (po); NI-No Increase. It is filed as functional, organism-based. The settings on record: Urine.
For test [4], the target named is T1, Angiotensin-converting enzyme (Rattus norvegicus) (UniProt P47820).
T1 sequence (whole entry): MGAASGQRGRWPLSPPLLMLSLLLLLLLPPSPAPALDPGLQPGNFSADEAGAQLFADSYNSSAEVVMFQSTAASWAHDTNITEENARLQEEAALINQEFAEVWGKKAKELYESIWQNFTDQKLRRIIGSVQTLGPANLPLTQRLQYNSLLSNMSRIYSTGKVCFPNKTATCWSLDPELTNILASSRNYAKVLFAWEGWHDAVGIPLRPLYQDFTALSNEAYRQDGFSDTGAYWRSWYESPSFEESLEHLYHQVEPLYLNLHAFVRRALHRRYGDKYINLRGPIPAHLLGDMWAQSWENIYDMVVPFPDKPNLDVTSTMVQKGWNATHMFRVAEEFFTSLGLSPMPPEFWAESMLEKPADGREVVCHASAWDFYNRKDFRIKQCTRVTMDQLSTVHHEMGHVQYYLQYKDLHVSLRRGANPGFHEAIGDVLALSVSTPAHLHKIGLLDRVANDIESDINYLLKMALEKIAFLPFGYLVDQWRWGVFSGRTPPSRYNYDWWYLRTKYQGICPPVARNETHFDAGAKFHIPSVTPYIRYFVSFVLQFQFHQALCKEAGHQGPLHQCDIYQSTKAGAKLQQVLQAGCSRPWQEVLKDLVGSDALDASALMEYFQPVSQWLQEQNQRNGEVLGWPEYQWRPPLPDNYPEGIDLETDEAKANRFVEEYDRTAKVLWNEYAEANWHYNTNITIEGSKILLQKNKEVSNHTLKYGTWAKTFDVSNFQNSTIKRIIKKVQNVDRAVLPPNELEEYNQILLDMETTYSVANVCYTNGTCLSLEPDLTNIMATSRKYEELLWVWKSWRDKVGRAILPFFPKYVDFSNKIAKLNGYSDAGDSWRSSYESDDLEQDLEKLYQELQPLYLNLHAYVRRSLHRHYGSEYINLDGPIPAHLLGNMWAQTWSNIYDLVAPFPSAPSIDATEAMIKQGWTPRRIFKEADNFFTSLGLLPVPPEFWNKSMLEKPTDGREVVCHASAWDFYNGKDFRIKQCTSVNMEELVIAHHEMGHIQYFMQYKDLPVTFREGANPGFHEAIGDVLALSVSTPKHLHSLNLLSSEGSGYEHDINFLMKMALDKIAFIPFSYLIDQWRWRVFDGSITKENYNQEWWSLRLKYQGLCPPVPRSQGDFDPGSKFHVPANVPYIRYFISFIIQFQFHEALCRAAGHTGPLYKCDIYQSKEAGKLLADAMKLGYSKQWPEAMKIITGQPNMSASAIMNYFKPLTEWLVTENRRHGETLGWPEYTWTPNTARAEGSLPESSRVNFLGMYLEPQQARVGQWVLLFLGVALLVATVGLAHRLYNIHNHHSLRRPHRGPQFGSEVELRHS
Put plainly: Inhibition of Angiotensin I converting enzyme(ACE) at the dose of 30 mg/kg (po) in rat. Set-up: dose 30 mg/kg. It is filed as organism-based.

The species named for test [5] is Rattus norvegicus. Put plainly: Duration of action on ACE in rat. It is filed as functional.
In test [6] the target is T1, Angiotensin-converting enzyme (Rattus norvegicus). Put plainly: Inhibition of Angiotensin I converting enzyme(ACE) at the dose of 30 mg/kg (ip) in rat. In kind it is organism-based. On the set-up: dose 30 mg/kg; scale not given: the % may be the effect or the level left.
The target of test [7] is T2, Angiotensin-converting enzyme (Rattus norvegicus, UniProt P47820).
T2 sequence (P47820 whole entry): T1 sequence (whole entry)
Put plainly: In vitro inhibitory activity against Angiotensin I converting enzyme(ACE).

Test [8] addresses T1, Angiotensin-converting enzyme (Rattus norvegicus). Nature of the test: Inhibition of Angiotensin I converting enzyme(ACE) at the dose of 100 mg/kg (po) in rat. In kind it is organism-based. Set-up: dose 100 mg/kg.
Test [9] shares this target. Put plainly: Inhibition of Angiotensin I converting enzyme(ACE) at the dose of 100 mg/kg (ip) in rat. On the set-up: dose 100 mg/kg. In kind it is organism-based.
For test [10], the system named is Canis familiaris. Put plainly: Diuretic activity (po) in dog; NI-No Increase. In kind it is functional, organism-based. The settings on record: Canis lupus familiaris; Urine.
Test [11] relates to Rattus norvegicus. Nature of the test: Diuretic activity (po); ND-Natriuresis&diuresis. The following applies: Urine. It is filed as functional, organism-based.
For test [12], the target named is Angiotensin-converting enzyme (Homo sapiens) (UniProt P12821). Put plainly: Inhibition of Angiotensin I converting enzyme(ACE) at the dose of 100 mg/kg (ip) in dog. In kind it is organism-based. On the set-up: dose 100 mg/kg. The following applies: Canis lupus familiaris; target entry is the homologue from another species.
For test [13], the target named is T1, Angiotensin-converting enzyme (Rattus norvegicus). Nature of the test: Inhibition of Angiotensin I converting enzyme(ACE) at the dose of 10 mg/kg (po) in rat. It is filed as organism-based. On the set-up: dose 10 mg/kg.
In test [14] the test system is Canis familiaris. Put plainly: Maximum percent decrease in blood pressure at the dose of 100 mg/kg ip. In kind it is functional, Canis lupus familiaris. The settings on record: route intraperitoneal.
In test [15] the test system is Canis familiaris. Nature of the test: Diuretic activity (po);NI- No Increase. In kind it is functional, organism-based. The following applies: Canis lupus familiaris; Urine.
The target of test [16] is T1, Angiotensin-converting enzyme (Rattus norvegicus). Nature of the test: Inhibition of Angiotensin I converting enzyme at the dose of 30 mg/kg (po) in rat. It is filed as organism-based. On the set-up: dose 30 mg/kg; scale not given: the % may be the effect or the level left.
Test [17] has the same target. Put plainly: In vitro inhibitory activity against Angiotensin I converting enzyme at 100 uM concentration.
The species named for test [18] is Rattus norvegicus. Put plainly: Duration of action of the compound. It is filed as functional.
Test [19] has as its target Angiotensin-converting enzyme (Homo sapiens) (UniProt P12821). Nature of the test: […] inhibitory activity against angiotensin I converting enzyme (ACE) in dog.
Test [20] has as its system Canis familiaris. Nature of the test: Diuretic activity (ip) was tested in dogs;ND- Natriuresis and diuresis. In kind it is functional, organism-based. The following applies: Canis lupus familiaris; Urine.
In test [21] the test system is Rattus norvegicus. Put plainly: Diuretic activity (po); N-Natriuresis. The settings on record: Urine. In kind it is functional, organism-based.

Active and inactive are the calls of the source. The rule behind the calls is not given here.

Sequence of Angiotensin-converting enzyme (Homo sapiens) (P12821 whole entry): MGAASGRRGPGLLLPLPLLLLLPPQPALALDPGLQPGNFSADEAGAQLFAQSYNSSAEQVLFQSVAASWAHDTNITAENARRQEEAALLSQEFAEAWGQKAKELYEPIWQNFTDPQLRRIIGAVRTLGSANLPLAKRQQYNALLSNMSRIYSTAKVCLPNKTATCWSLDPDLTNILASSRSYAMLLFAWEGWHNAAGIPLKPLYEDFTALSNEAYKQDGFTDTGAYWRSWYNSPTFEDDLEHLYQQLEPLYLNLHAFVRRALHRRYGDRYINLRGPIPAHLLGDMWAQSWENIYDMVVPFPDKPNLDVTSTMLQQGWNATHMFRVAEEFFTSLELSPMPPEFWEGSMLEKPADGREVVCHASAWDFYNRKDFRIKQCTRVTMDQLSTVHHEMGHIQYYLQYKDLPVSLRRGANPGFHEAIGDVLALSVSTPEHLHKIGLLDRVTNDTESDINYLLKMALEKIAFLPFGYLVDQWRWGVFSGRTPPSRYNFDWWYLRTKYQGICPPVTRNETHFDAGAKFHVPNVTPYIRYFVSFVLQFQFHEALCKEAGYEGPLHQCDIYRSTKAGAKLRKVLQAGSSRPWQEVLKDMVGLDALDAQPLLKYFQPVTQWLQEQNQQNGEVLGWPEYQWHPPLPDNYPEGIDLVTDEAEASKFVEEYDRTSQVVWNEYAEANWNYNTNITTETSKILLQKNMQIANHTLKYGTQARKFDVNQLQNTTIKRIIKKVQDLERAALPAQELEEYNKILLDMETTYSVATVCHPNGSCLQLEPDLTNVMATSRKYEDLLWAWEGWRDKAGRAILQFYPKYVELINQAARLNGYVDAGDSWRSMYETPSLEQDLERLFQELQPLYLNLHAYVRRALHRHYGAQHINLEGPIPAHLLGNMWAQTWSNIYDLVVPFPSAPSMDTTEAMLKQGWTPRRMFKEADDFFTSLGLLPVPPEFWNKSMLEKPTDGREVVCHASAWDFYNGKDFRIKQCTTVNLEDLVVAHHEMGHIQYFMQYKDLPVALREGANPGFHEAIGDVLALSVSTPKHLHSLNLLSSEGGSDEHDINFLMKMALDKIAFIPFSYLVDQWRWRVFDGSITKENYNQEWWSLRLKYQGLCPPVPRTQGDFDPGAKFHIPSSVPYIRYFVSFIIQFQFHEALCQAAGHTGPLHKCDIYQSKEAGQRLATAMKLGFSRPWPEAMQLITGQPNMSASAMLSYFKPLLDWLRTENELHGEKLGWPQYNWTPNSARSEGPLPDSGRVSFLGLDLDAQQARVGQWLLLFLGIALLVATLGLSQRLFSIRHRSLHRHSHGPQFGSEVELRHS

As to `CCOC(=O)[C@H](CCc1ccccc1)N[C@@H](C)C(=O)N1CCC[C@H]1C(=O)O` [ENALAPRIL], the outcome with Canis familiaris [1] was inactive. In the test with Canis familiaris [2], the Decrease came out at 38%.

For the compound `C[C@H](N[C@@H](CCc1ccccc1)C(=O)O)C(=O)N(Cc1ccccc1)[C@H](CCCCNc1cc(Cl)c(S(N)(=O)=O)cc1C(=O)O)C(=O)O.Cl`, the Activity entry with Rattus norvegicus [3] was “No increase”; in test [6] it was below 30%. The same compound yielded an ACE inhibition in test [4] of 50%. The compound also displayed a Duration in the test listed under Rattus norvegicus [5] below 1 h. Further, half-maximal inhibition in test [7] (IC50) required 0.68 µM.

As for `C[C@H](N[C@@H](CCc1ccccc1)C(=O)O)C(=O)N(CC(=O)O)CC1Nc2cc(Cl)c(S(N)(=O)=O)cc2S(=O)(=O)N1` (stereo partly drawn), the ACE inhibition in test [8] turned out to be 80%; in test [9], 100%; in test [4], 50%; in test [13], 50%. Besides, the Activity entry with Canis familiaris [10] is “No increase”; in the test with Rattus norvegicus [11], “Natriuresis and diuresis”. The Duration in the test filed under Rattus norvegicus [5] was above 3 h. The inhibition – broadly, the share of the control response that was lost under treatment – in test [12] was found to be 100%. Besides, in test [7], the IC50 (in general, the point on the concentration scale where inhibition reaches its midpoint) is 38 µM. The Decrease in the test on Canis familiaris [14] was determined as 21%.

As to `CCOC(=O)[C@H](CCc1ccccc1)N[C@@H](C)C(=O)N(CC(=O)O)NC(=O)c1ccc(Cl)c(S(N)(=O)=O)c1.Cl`, the Activity result was “No increase” in the test with Canis familiaris [15] and 50% in test [16]. Also, in [17], the inhibition is 40%. The Duration in the test filed under Rattus norvegicus [18] is below 1 h.

On to `NS(=O)(=O)c1cc2c(cc1Cl)NCNS2(=O)=O` [HYDROCHLOROTHIAZIDE], for which, in test [19], the ED50 – broadly, the dose at which the effect has come halfway, by size or by number of responders – was above 100 mg/kg. The outcome in the test with Canis familiaris [20] was Active. The same compound showed a Decrease in the test on Canis familiaris [14] of 0%.

`C[C@H](N[C@@H](CCc1ccccc1)C(=O)O)C(=O)N(Cc1ccccc1)[C@H](CCCCNc1cc(Cl)c(C(=O)O)cc1S(N)(=O)=O)C(=O)O.Cl` registered a Duration in the test filed under Rattus norvegicus [5] of 0 h. For the same compound, the ACE inhibition in [13] is 80%. In addition, the Activity result in the test with Rattus norvegicus [21] was “N”. Besides, the midpoint of inhibition in test [7], the IC50, lay at 2.4 µM.
